Assay results as given in patent US9796677B2, “Amide compound and pharmaceutical comprising same” (JAPAN SCIENCE AND TECHNOLOGY AGENCY, priority 2013, dated 2017).

Assays:
O-acylisopeptide of Aβ = target: T1, O-acylisopeptide of Aβ (Homo sapiens, UniProt P05067); assay: Aβ aggregation inhibition test (thioflavine T fluorescence); format: biochemical; conditions: final sample concentration 30 μM, Aβ O-acylisopeptide 10 μM, pH 7.4, 37° C., 1% DMSO; DMSO control defined as 100
T1 construct: containing O-acylisopeptide of Aβ (10 μM)
Procedure: A test sample solution (solution in DMSO) was added into a 0.1 M phosphate buffer solution (pH 7.4, 50 μL) containing O-acylisopeptide of Aβ (10 μM) (final sample concentration: 30 μM, 1% DMSO), and the mixture was incubated at 37° C. for an arbitrary time. Then, an aliquot (10 μL) of the reaction solution was added to a mixed solution of a thioflavine T solution (50 μM thioflavine T, 10 μL) and a 50 mM glycine-NaOH buffer (pH 8.5, 396 μL) and immediately mixed therewith, and the fluorescence intensity of thioflavine T was measured. In the fluorescence intensity measurement, 440 nm was used as an excitation wavelength, and 480 nm was used as a fluorescent wavelength.

Aβ = conditions: background statement on the known pentapeptide; cited from earlier work
Chain of Aβ (P05067 672-711 limits assumed): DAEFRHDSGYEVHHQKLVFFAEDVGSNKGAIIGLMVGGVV

T1 sequence (P05067 672-713 limits assumed): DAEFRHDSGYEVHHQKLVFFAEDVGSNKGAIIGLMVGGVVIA

| Compound | Aggregation inhibition ratio (lower value means stronger inhibitory activity) (O-acylisopeptide of Aβ) | Aβ aggregation inhibitory activity (Aβ) |
| --- | --- | --- |
| CC(C)CCNC(=O)c1cc(Cc2ccccc2)cc(Oc2ccccc2)n1 [Compound 1, 4-Benzyl-6-phenoxy-N-isoamylpicolinamide] | 61 | – |
| CC(C)CCNC(=O)c1cc(Cc2ccc3ccccc3c2)cc(Oc2ccccc2)n1 [Compound 2, 4-(Naphthalen-2-yl)methyl-6-phenoxy-N-isoamylpicolinamide] | 52 | – |
| CC(C)CCCNC(=O)c1cc(Cc2ccccc2)cc(Oc2ccccc2)n1 [Compound 3, 4-Benzyl-6-phenoxy-N-(4-methylpentyl)picolinamide] | 58 | – |
| CC(C)CCNC(=O)c1cc(Cc2ccccc2)cc(OC2CCCCC2)n1 [Compound 4, 4-Benzyl-6-cyclohexyloxy-N-isoamylpicolinamide] | 60 | – |
| CC(C)CCNC(=O)c1cc(Cc2ccccc2)cc(OCc2ccccc2)n1 [Compound 5, 6-Benzyloxy-4-benzyl-N-isoamylpicolinamide] | 75 | – |
| CC(C)CCOc1cc(Cc2ccccc2)cc(C(=O)NCCc2ccccc2)n1 [Compound 6, 4-Benzyl-6-(3-methylbutoxy)-N-phenylethylpicolinamide] | 60 | – |
| O=C(NC1C2CC3CC(C2)CC1C3)c1nc(Cc2ccccc2)cc(Oc2ccccc2)n1 (centres unmarked) [Compound 12, N-(Adamantan-2-yl)-4-benzyl-6-phenoxypyrimidine-2-carboxamide] | 40 | – |
| L-[Lys-Leu-Val-Phe-Phe] (KLVFF) [(known), used as control] | – | very weak |
